Measured values as given in patent US20250041282A1, “METHOD FOR TREATING INFLAMMATORY PULMONARY DISEASE” (FU JEN CATHOLIC UNIVERSITY, priority 2021, published 2025).

Experiments:
[1] = tested on: C57BL/6 mice with LPS-induced systemic inflammation; assay: Serum cytokines by ELISA in mice with LPS-induced systemic inflammation; format: in vivo, mouse; details: FJU-C28 5 mg/kg, LPS 7.5 mg/kg; FIG. 12B
Procedure: RANTES (RayBiotech), IL-1β and IL-6 (eBioscience, San Diego, CA, USA) concentrations in cell culture media and mouse serum were measured using ELISA kits according to the manufacturer's instructions. The plates were measured at […] using an Epoch microplate spectrophotometer (BioTek Instruments, Winooski, VT, USA). The concentrations of RANTES, IL-1β and IL-6 in the samples were determined by standard curves.
Ten-week-old male C57BL/6 mice from BioLasco Taiwan Co., Ltd. (Taipei, Taiwan) were used in the present study. […] The detailed procedure was performed as described in a previous study.^34 The lung function values, including C chord (lung compliance), IC (inspiratory capacity), VC (vital capacity), FEV100 (forced expiratory volume at 100 ms) and FVC (forced vital capacity), were measured using a Buxco Research System. […]
To evaluate the protective effect of FJU-C28 on lung function in mice with systemic inflammation induced by endotoxin, male C57BL/6 mice were administered LPS (7.5 mg/kg) and treated with/without FJU-C28 (5 mg/kg) for 24 hours; subsequently, lung function parameters were measured using a Buxco pulmonary function test system. […] To ascertain the correlation between target cytokines and lung injury, serum cytokines were measured by ELISA.

[2] = tested on: C57BL/6 mice with LPS-induced systemic inflammation; assay: Histological examination of lung specimens (H&E); format: in vivo, mouse; details: FJU-C28 5 mg/kg, LPS 7.5 mg/kg, FIG. 12A
Procedure: Ten-week-old male C57BL/6 mice from BioLasco Taiwan Co., Ltd. (Taipei, Taiwan) were used in the present study. The mice were maintained under standard laboratory conditions as described in a previous study.^34 All animal procedures were approved by the Institutional Animal Care and Use Committee of Fu Jen Catholic University (IACUC approval number: A10508). We also confirmed that all experiments were performed in compliance with the ARRIVE guidelines. All surgeries were performed under anesthesia, and all efforts were made to minimize the pain and discomfort of the animals. The mice were randomly assigned to three groups: control (n=7), LPS (n=7) and LPS plus C28 (n=8). […] The detailed procedure was performed as described in a previous study.^34 The lung function values, including C chord (lung compliance), IC (inspiratory capacity), VC (vital capacity), FEV100 (forced expiratory volume at 100 ms) and FVC (forced vital capacity), were measured using a Buxco Research System. […]
To evaluate the protective effect of FJU-C28 on lung function in mice with systemic inflammation induced by endotoxin, male C57BL/6 mice were administered LPS (7.5 mg/kg) and treated with/without FJU-C28 (5 mg/kg) for 24 hours; subsequently, lung function parameters were measured using a Buxco pulmonary function test system. […]

RAW264.7 macrophages [3] = assay: Analysis of cell viability (MTT assay); format: cell-based, mouse; details: FIG. 1B
Procedure: RAW264.7 cells (mouse monocyte/macrophage-like cells) were purchased from the Bioresource Collection and Research Center (Hsinchu, Taiwan). The cells were maintained in DMEM (HyClone, Logan, UT, USA) containing 10% fetal bovine serum (HyClone), MEM nonessential amino acids (HyClone), […] sodium pyruvate (HyClone), and penicillin/streptomycin (HyClone). The cells were incubated at 37° C. in a humidified atmosphere of 5% CO2 and 95% air. RAW264.7 macrophages were pretreated with FJU-Cs (0 to 10 μM) as indicated for 30 min and were then stimulated with/without LPS (100 ng/ml) for 24 h. The remaining cells were evaluated by a 3-(4,5-dimethylthiazol-2-yl)-2,5-diphenyl tetrazolium bromide (MTT) assay. Cells containing formazan crystals were dissolved in DMSO (Merck, Darmstadt, Germany) and quantified at a wavelength of 595 nm using a spectrophotometer (BioTek Instruments, Inc. Winooski, Vermont, USA). Each experiment was repeated at least 3 times.

RAW264.7 macrophages [4] = assay: Western blotting of LPS-stimulated macrophage lysates; format: cell-based, mouse
Description: In brief, cell lysate was separated by 10% SDS-PAGE and transferred to a PVDF membrane (Hybond™-P, Amersham, Piscataway, NJ, USA). The blots were probed with anti-p38 (Catalogue Number: 8690P), anti-p-p38 (Thr180/Tyr182; Catalogue Number: 4511P), anti-ERK44/42 (Catalogue Number: 4695P), anti-p-ERK44/42 (Thr202/Tyr204; Catalogue Number: 4370P), anti-JNK (Catalogue Number: 9258P), anti-p-JNK (Thr183/Tyr185; Catalogue Number: 4668P), anti-p65 (Catalogue Number: 8242S), anti-STAT3 (Catalogue Number: 12640S), anti-p-STAT3 (Tyr705; Catalogue Number: 9145S) and anti-RANTES (Catalogue Number: 2989S) antibodies were provided by Cell Signaling Technology, Inc. (Danvers, MA, USA). Anti-Lamin A/C (Catalogue Number: 101127) antibodies were obtained from GeneTex, Inc. (San Antonio, TX, USA). Anti-β-Actin (Catalogue Number: SC-47778) and anti-COX2 (Catalogue Number: SC-1746) antibody was obtained from Santa Cruz Biotechnology, Inc. (Dallas, Texas, USA). The anti-iNOS (Catalog Number: 610329) antibody was obtained from BD transduction Lab. (San Jose, CA, USA). Bound antibodies were visualized by […] staining (Western Lighting Plus ECL; PerkinElmer, Wellesley, MA, USA) with autoradiography using FUJI Medical X-ray film (Fuji Corporation, Kofu, Yamanashi, Japan) or a MultiGel-21 multifunctional imaging system (TOPBIO, New Taipei, Taiwan). The intensity of the western blot bands was quantified by ImageJ software. The quantitative immunoblot data were normalized to the internal control protein and are expressed as the relative ratio of the treatment group to the control. The data represent the mean±S.D. of at least three independent experiments.

[5] = LPS-stimulated, at doses higher than 5 μM, FIG. 1D

In the case of `C=CCC1CC(Sc2ccccc2)=CC(=O)N1C(=O)C=C` (stereo not drawn) [FJU-C28], the “circulating (serum) level of IL-6” value [1] was “significantly suppressed”, the “circulating (serum) level of RANTES” value [1] was “significantly suppressed” and the “alveolar structure in lung tissue” value [2] was “sustained most of the alveolar structure”. The “neutrophil infiltration in the interstitium of the lung” value [2] was “reduced the neutrophil infiltration in the interstitium”, the cytotoxicity (RAW264.7 macrophages [3]; compared with 10 μM FJU-C4, 24 hours) was “less cytotoxicity than 10 μM FJU-C4” and the LPS-induced cell death (RAW264.7 macrophages [3]; pretreated 30 min, then LPS 24 hours) was “protected RAW264.7 macrophages from LPS-induced cell death”. For the same compound, the “LPS-induced level of p-ERK” value (RAW264.7 macrophages [4]; 5 μM and 10 μM, FIG. 6A) was “dramatically inhibited”, the “LPS-induced level of p-JNK” value (RAW264.7 macrophages [4]; 5 μM and 10 μM, FIG. 6A) was “dramatically inhibited” and the “LPS-induced level of p-p38” value (RAW264.7 macrophages [4]; 5 μM and 10 μM, FIG. 6A) was “dramatically inhibited”. For the same compound, the “levels of STAT3 protein” value (RAW264.7 macrophages [4]; FIG. 8) was “reducing the levels of STAT3 protein”, the “LPS-induced phosphorylation of STAT3” value (RAW264.7 macrophages [4]; LPS-induced RAW264.7, FIG. 6D) was “concentration-dependently inhibited” and the “expression of COX2 (immunoblot)” value (RAW264.7 macrophages [4]; [5]) was “suppressed”. The “expression of iNOS (immunoblot)” value (RAW264.7 macrophages [4]; [5]) was “suppressed”, the “NF-κB (p65) in nuclear extract (translocation)” value (RAW264.7 macrophages [4]; LPS-stimulated, increasing dose, FIG. 6C) was “nuclear NF-κB (p65) was decreased” and the “LPS-induced protein expression of RANTES (western blot)” value (RAW264.7 macrophages [4]; at 6 hours, FIG. 4B) was “dramatically suppressed”.
